Laboratory results published in the supplement of paper PMC10307832.

Experiments:
Test in all cases: relative viability (nuclei count vs DMSO), 5 days (fraction); higher = more cells survive
MK-2206 + Pemetrexed = compound: NC1(c2ccc(-c3nc4ccn5c(=O)[nH]nc5c4cc3-c3ccccc3)cc2)CCC1 [MK-2206] + Nc1nc2[nH]cc(CCc3ccc(C(=O)N[C@@H](CCC(=O)O)C(=O)O)cc3)c2c(=O)[nH]1 [Pemetrexed] (partner 0.2 µM)
Method in brief: (§1)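 Lung cancer cell lines, seeded in 1536-well plates, were treated the following day by pin tool with a single drug or with five library-drug doses (not always all listed) in √10 steps on top of a fixed anchor-drug dose. Cells were fixed and nuclei stained in one step after 5 days, and nuclei were counted. Relative viability is the nuclei count for treated wells divided by that for vehicle wells, reported as medians of duplicate plates.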

MK-2206 + Decitabine = compound: NC1(c2ccc(-c3nc4ccn5c(=O)[nH]nc5c4cc3-c3ccccc3)cc2)CCC1 [MK-2206] + Nc1ncn([C@H]2C[C@H](O)[C@@H](CO)O2)c(=O)n1 [Decitabine] (partner 2 µM)
Method in brief: as §1

Pictilisib + Linsitinib = compound: CS(=O)(=O)N1CCN(Cc2cc3nc(-c4cccc5[nH]ncc45)nc(N4CCOCC4)c3s2)CC1 [Pictilisib] + C[C@]1(O)C[C@@H](c2nc(-c3ccc4ccc(-c5ccccc5)nc4c3)c3c(N)nccn32)C1 [Linsitinib] (partner 1 µM)
Method in brief: as §1

MK-2206 + Crizotinib = compound: NC1(c2ccc(-c3nc4ccn5c(=O)[nH]nc5c4cc3-c3ccccc3)cc2)CCC1 [MK-2206] + C[C@@H](Oc1cc(-c2cnn(C3CCNCC3)c2)cnc1N)c1c(Cl)ccc(F)c1Cl [Crizotinib] (partner 1 µM)
Method in brief: as §1

Pictilisib + Crizotinib = compound: CS(=O)(=O)N1CCN(Cc2cc3nc(-c4cccc5[nH]ncc45)nc(N4CCOCC4)c3s2)CC1 [Pictilisib] + C[C@@H](Oc1cc(-c2cnn(C3CCNCC3)c2)cnc1N)c1c(Cl)ccc(F)c1Cl [Crizotinib] (partner 1 µM)
Method in brief: as §1

Cell Line: NCI-H1651
- relative viability (MK-2206 + Pemetrexed; first compound 0.01 µM): 0.562
- relative viability (MK-2206 + Pemetrexed; first compound 0.03162 µM): 0.575
- relative viability (MK-2206 + Pemetrexed; first compound 0.3162 µM): 0.621
- relative viability (MK-2206 + Pemetrexed; first compound 1 µM): 0.513
- relative viability (MK-2206 + Decitabine; first compound 0.01 µM): 0.592
- relative viability (MK-2206 + Decitabine; first compound 0.03162 µM): 0.652
- relative viability (MK-2206 + Decitabine; first compound 0.3162 µM): 0.637
- relative viability (MK-2206 + Decitabine; first compound 1 µM): 0.432
- relative viability (Pictilisib + Linsitinib; first compound 0.02 µM): 0.922
- relative viability (Pictilisib + Linsitinib; first compound 0.06325 µM): 0.953
- relative viability (Pictilisib + Linsitinib; first compound 0.6325 µM): 0.817
- relative viability (Pictilisib + Linsitinib; first compound 2 µM): 0.616
- relative viability (MK-2206 + Crizotinib; first compound 0.01 µM): 0.878
- relative viability (MK-2206 + Crizotinib; first compound 0.03162 µM): 0.875
- relative viability (MK-2206 + Crizotinib; first compound 0.3162 µM): 0.892
- relative viability (MK-2206 + Crizotinib; first compound 1 µM): 0.884
- relative viability (Pictilisib + Crizotinib; first compound 0.02 µM): 0.855
- relative viability (Pictilisib + Crizotinib; first compound 0.06325 µM): 0.863
- relative viability (Pictilisib + Crizotinib; first compound 0.6325 µM): 0.84
- relative viability (Pictilisib + Crizotinib; first compound 2 µM): 0.683

Cell Line: EBC-1
- relative viability (Pictilisib + Linsitinib; first compound 0.02 µM): 1.02
- relative viability (Pictilisib + Linsitinib; first compound 0.06325 µM): 0.966
- relative viability (Pictilisib + Linsitinib; first compound 0.6325 µM): 0.768
- relative viability (Pictilisib + Linsitinib; first compound 2 µM): 0.195
- relative viability (MK-2206 + Crizotinib; first compound 0.01 µM): 0.189
- relative viability (MK-2206 + Crizotinib; first compound 0.03162 µM): 0.205
- relative viability (MK-2206 + Crizotinib; first compound 0.3162 µM): 0.198
- relative viability (MK-2206 + Crizotinib; first compound 1 µM): 0.172
- relative viability (Pictilisib + Crizotinib; first compound 0.02 µM): 0.205
- relative viability (Pictilisib + Crizotinib; first compound 0.06325 µM): 0.211
- relative viability (Pictilisib + Crizotinib; first compound 0.6325 µM): 0.213
- relative viability (Pictilisib + Crizotinib; first compound 2 µM): 0.175

Cell Line: COR-L 105
- relative viability (MK-2206 + Pemetrexed; first compound 0.01 µM): 1.22
- relative viability (MK-2206 + Pemetrexed; first compound 0.03162 µM): 1.08
- relative viability (MK-2206 + Pemetrexed; first compound 0.3162 µM): 1.29
- relative viability (MK-2206 + Pemetrexed; first compound 1 µM): 1.28
- relative viability (MK-2206 + Decitabine; first compound 0.01 µM): 0.656
- relative viability (MK-2206 + Decitabine; first compound 0.03162 µM): 0.568
- relative viability (MK-2206 + Decitabine; first compound 0.3162 µM): 0.624
- relative viability (MK-2206 + Decitabine; first compound 1 µM): 0.779
- relative viability (Pictilisib + Linsitinib; first compound 0.02 µM): 0.882
- relative viability (Pictilisib + Linsitinib; first compound 0.06325 µM): 0.933
- relative viability (Pictilisib + Linsitinib; first compound 0.6325 µM): 0.819
- relative viability (Pictilisib + Linsitinib; first compound 2 µM): 0.486
- relative viability (MK-2206 + Crizotinib; first compound 0.01 µM): 0.789
- relative viability (MK-2206 + Crizotinib; first compound 0.03162 µM): 0.798
- relative viability (MK-2206 + Crizotinib; first compound 0.3162 µM): 0.782
- relative viability (MK-2206 + Crizotinib; first compound 1 µM): 0.598
- relative viability (Pictilisib + Crizotinib; first compound 0.02 µM): 0.814
- relative viability (Pictilisib + Crizotinib; first compound 0.06325 µM): 0.913
- relative viability (Pictilisib + Crizotinib; first compound 0.6325 µM): 0.988
- relative viability (Pictilisib + Crizotinib; first compound 2 µM): 0.418

Cell Line: RERF-LC-KJ
- relative viability (MK-2206 + Pemetrexed; first compound 0.01 µM): 0.489
- relative viability (MK-2206 + Pemetrexed; first compound 0.03162 µM): 0.471
- relative viability (MK-2206 + Pemetrexed; first compound 0.3162 µM): 0.532
- relative viability (MK-2206 + Pemetrexed; first compound 1 µM): 0.476
- relative viability (MK-2206 + Decitabine; first compound 0.01 µM): 0.788
- relative viability (MK-2206 + Decitabine; first compound 0.03162 µM): 0.677
- relative viability (MK-2206 + Decitabine; first compound 0.3162 µM): 0.599
- relative viability (MK-2206 + Decitabine; first compound 1 µM): 0.62
- relative viability (Pictilisib + Linsitinib; first compound 0.02 µM): 0.823
- relative viability (Pictilisib + Linsitinib; first compound 0.06325 µM): 0.881
- relative viability (Pictilisib + Linsitinib; first compound 0.6325 µM): 0.818
- relative viability (Pictilisib + Linsitinib; first compound 2 µM): 0.618
- relative viability (MK-2206 + Crizotinib; first compound 0.01 µM): 0.808
- relative viability (MK-2206 + Crizotinib; first compound 0.03162 µM): 0.806
- relative viability (MK-2206 + Crizotinib; first compound 0.3162 µM): 0.871
- relative viability (MK-2206 + Crizotinib; first compound 1 µM): 0.842
- relative viability (Pictilisib + Crizotinib; first compound 0.02 µM): 0.845
- relative viability (Pictilisib + Crizotinib; first compound 0.06325 µM): 0.875
- relative viability (Pictilisib + Crizotinib; first compound 0.6325 µM): 0.816
- relative viability (Pictilisib + Crizotinib; first compound 2 µM): 0.635

Cell Line: NCI-H1793
- relative viability (MK-2206 + Pemetrexed; first compound 0.01 µM): 0.908
- relative viability (MK-2206 + Pemetrexed; first compound 0.03162 µM): 0.863
- relative viability (MK-2206 + Pemetrexed; first compound 0.3162 µM): 0.844
- relative viability (MK-2206 + Pemetrexed; first compound 1 µM): 0.783
- relative viability (MK-2206 + Decitabine; first compound 0.01 µM): 0.477
- relative viability (MK-2206 + Decitabine; first compound 0.03162 µM): 0.552
- relative viability (MK-2206 + Decitabine; first compound 0.3162 µM): 0.439
- relative viability (MK-2206 + Decitabine; first compound 1 µM): 0.435
- relative viability (Pictilisib + Linsitinib; first compound 0.02 µM): 0.829
- relative viability (Pictilisib + Linsitinib; first compound 0.06325 µM): 0.819
- relative viability (Pictilisib + Linsitinib; first compound 0.6325 µM): 0.554
- relative viability (Pictilisib + Linsitinib; first compound 2 µM): 0.336
